According to PMC4814904, “Redox proteins of hydroxylating bacterial dioxygenases establish a regulatory cascade that prevents gratuitous induction of tetralin biodegradation genes” (Scientific Reports, 2016):
Where two headings read alike, the source gives them in different places.

Columns and labels:
[1] = target: T1, ThnA4 (ThnA4-His6), NAD(P)H-dependent ferredoxin reductase of tetralin dioxygenase (Sphingopyxis macrogoltabida, UniProt Q8GJE9); assay: stopped-flow pre-steady-state reduction of ThnA4ox, fit of kA→B; assay type: biochemical; details: oxidized enzyme, potassium phosphate 50 mM pH 7.4, NaCl 10 mM, glycerine 5%, 15 °C, hydride donor
T1 construct: full length, 339 residues, C-terminal His6 (pET23b, plasmid pMPO784), E. coli NCM631 host; plant-type [2Fe-2S]; FAD-reconstituted

[2] = target: T1, ThnA4 (ThnA4-His6), NAD(P)H-dependent ferredoxin reductase of tetralin dioxygenase; assay: UV-visible spectrum after FAD reconstitution; assay type: binding; details: 2 mM FAD added during cell disruption; FAD partly lost during purification

T1 sequence (Q8GJE9 entry or part of it): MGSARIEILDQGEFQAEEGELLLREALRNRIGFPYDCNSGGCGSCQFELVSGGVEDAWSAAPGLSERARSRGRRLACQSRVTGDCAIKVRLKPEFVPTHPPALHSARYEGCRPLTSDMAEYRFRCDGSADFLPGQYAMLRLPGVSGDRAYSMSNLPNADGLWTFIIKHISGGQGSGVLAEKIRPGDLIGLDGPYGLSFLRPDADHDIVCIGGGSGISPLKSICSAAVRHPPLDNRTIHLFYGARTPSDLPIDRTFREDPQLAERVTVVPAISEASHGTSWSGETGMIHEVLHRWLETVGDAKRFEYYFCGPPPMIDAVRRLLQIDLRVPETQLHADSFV

Compound `NC(=O)C1=CN([C@@H]2O[C@H](COP(=O)(O)OP(=O)(O)OC[C@H]3O[C@@H](n4cnc5c(N)ncnc54)[C@H](OP(=O)(O)O)[C@@H]3O)[C@@H](O)[C@H]2O)C=CC1` [NADPH] has a Kd ([1]; read-out: Kd^NADPH) of 54 ± 13 µM.

With `NC(=O)C1=CN([C@@H]2O[C@H](COP(=O)(O)OP(=O)(O)OC[C@H]3O[C@@H](n4cnc5c(N)ncnc54)[C@H](O)[C@@H]3O)[C@@H](O)[C@H]2O)C=CC1` [NADH] the Kd ([1]; upper limit estimated from saturation profile, read-out: Kd^NADH) was < 0.4 µM.

For `Cc1cc2nc3c(=O)[nH]c(=O)nc-3n(C[C@H](O)[C@H](O)[C@H](O)COP(=O)(O)OP(=O)(O)OC[C@H]3O[C@@H](n4cnc5c(N)ncnc54)[C@H](O)[C@@H]3O)c2cc1C` [FAD], the “UV-visible spectrum after FAD reconstitution” value [2] was “reconstituted ThnA4-His6 contains the expected FAD and [2Fe-2S] redox centers”.
